# US7186743B2, “Substituted pyrazolyl compounds for the treatment of inflammation” (Pharmacia Corporation, priority 2001, dated 2007)
# Target: T1, IKK2 (Homo sapiens, UniProt O14920)
# T1 construct: made in house; host or cells: insect cells (baculovirus, pFastBac; SF9)
# T1 sequence (O14920 1-756): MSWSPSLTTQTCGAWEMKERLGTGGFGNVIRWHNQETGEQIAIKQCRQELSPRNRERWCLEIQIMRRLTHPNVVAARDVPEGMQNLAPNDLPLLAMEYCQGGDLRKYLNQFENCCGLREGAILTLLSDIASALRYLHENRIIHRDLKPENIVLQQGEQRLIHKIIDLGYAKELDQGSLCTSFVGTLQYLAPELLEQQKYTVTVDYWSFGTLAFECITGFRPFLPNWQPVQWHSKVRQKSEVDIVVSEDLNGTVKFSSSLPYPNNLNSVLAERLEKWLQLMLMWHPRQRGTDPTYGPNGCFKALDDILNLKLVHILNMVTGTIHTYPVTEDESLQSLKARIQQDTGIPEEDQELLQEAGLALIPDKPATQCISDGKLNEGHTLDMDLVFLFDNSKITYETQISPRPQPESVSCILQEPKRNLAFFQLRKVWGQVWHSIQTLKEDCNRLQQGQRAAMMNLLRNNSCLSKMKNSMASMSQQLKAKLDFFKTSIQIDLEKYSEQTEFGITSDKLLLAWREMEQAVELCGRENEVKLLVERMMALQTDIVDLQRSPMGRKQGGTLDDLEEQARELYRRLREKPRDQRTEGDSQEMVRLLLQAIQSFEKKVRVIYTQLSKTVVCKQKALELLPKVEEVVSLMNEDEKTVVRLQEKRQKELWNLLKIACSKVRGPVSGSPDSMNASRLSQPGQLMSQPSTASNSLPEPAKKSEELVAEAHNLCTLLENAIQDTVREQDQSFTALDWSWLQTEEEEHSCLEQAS
# Assay: IKKβ Resin Enzyme Assay (IKK2 resin)
# Assay type: biochemical
# Settings: Table 6; read-out: IKK2 Resin IC 50
# Outline: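 Radiometric test: [γ-33P]ATP incorporation into a biotinylated IκBα peptide, 30 min at 25° C, pH 7.6 Hepes with MgCl2/MnCl2 and 1 μM cold ATP. Reaction is quenched with Dowex resin and the supernatant is counted. Kinase is FLAG-purified homodimeric recombinant human IKK2 from insect cells.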
row,Structure (SMILES),IC50
1,"COc1cc(Cl)c(C(=O)Nc2ccc3c(c2)-c2c(c(C(N)=O)nn2-c2ccc(F)cc2)CC3)cc1OC [Example 239, 8-[(2-chloro-4,5-dimethoxybenzoyl)amino]-1-(4-fluorophenyl)-4,5-dihydro-1H-benzo[g]indazole-3-carboxamide]",≤ 1000 nM
2,"Cc1ccccc1C(=O)Nc1ccc2c(c1)-c1c(c(C(N)=O)nn1-c1ccc(F)cc1)CC2 [Example 240, 1-(4-fluorophenyl)-8-[(2-methylbenzoyl)amino]-4,5-benzo[g]indazole-3-dihydro-1H-carboxamide]",≤ 1000 nM
3,"NC(=O)c1nn(-c2ccc(F)cc2)c2c1CCc1ccc(NC(=O)c3cccc([N+](=O)[O-])c3Cl)cc1-2 [Example 241, 8-[(2-chloro-3-nitrobenzoyl)amino]-1-(4-fluorophenyl)-4,5-dihydro-1H-benzo[g]indazole-3-carboxamide]",≤ 1000 nM

# Same assay, conditions: Table 7; read-out: IKK2 Resin IC50
row,Structure (SMILES),IC50
1,"NC(=O)c1nn(-c2ccc(F)cc2)c2c1CCc1ccc(NC(=O)c3cc(N4CCNCC4)ncc3Cl)cc1-2 [Example 253, 8-[(5-chloro-2-piperazin-1-ylisonicotinoyl)amino]-1-(4-fluorophenyl)-4,5-dihydro-1H-benzo[g]indazole-3-carboxamide]",≤ 1000 nM
2,"CN1CCN(c2ccc(Cl)c(C(=O)Nc3ccc4c(c3)-c3c(c(C(N)=O)nn3-c3ccc(F)cc3)CC4)n2)CC1 [Example 256, 8-({[3-chloro-6-(4-methylpiperazin-1-yl)pyridin-2-yl]carbonyl}amino)-1-(4-fluorophenyl)-4,5-dihydro-1H-benzo[g]indazole-3-carboxamide]",≤ 1000 nM
3,"CN(C)CCSc1ccc(Cl)c(C(=O)Nc2ccc3c(c2)-c2c(c(C(N)=O)nn2-c2ccc(F)cc2)CC3)n1 [Example 257, 8-{[(3-chloro-6-{[2-(dimethylamino)ethyl]thio}pyridin-2-yl)carbonyl]amino}-1-(4-fluorophenyl)-4,5-dihydro-1H-benzo[g]indazole-3-carboxamide]",≤ 1000 nM
4,"CN1CCN(c2ccc(Cl)c(C(=O)Nc3ccc4c(c3)-c3c(c(C(N)=O)nn3-c3ccc(F)cc3)CC4)c2)CC1 [Example 258, 8-{[2-chloro-5-(4-methylpiperazin-1-yI)benzoyl]amino}-1-(4-fluorophenyl)-4,5-dihydro-1H-benzo[g]indazole-3-carboxamide]",≤ 1000 nM

# Same assay, conditions: Table 8; read-out: IKK2 Resin IC50
row,Structure (SMILES),IC50
1,"NC(=O)c1nn(-c2ccc(OCc3ccccc3)cc2)c2c1CCc1ccc(NC(=O)c3ccccc3Cl)cc1-2 [Example 259, 1-[4-(benzyloxy)phenyl]-8-[(2-chlorobenzoyl)amino]-4,5-dihydro-1H-benzo[g]indazole-3-carboxamide]",> 10000 nM
2,"NC(=O)c1nn(-c2ccc(O)cc2)c2c1CCc1ccc(NC(=O)c3ccccc3Cl)cc1-2 [Example 261, 8-[(2-chlorobenzoyl)amino]-1-(4-hydroxyphenyl)-4,5-dihydro-1H-benzo[g]indazole-3-carboxamide]",≤ 1000 nM
3,"NC(=O)c1nn(-c2cccc(O)c2)c2c1CCc1ccc(NC(=O)c3ccccc3Cl)cc1-2 [Example 262, 8-[(2-chlorobenzoyl)amino]-1-(3-hydroxyphenyl)-4,5-dihydro-1H-benzo[g]indazole-3-carboxamide]",≤ 1000 nM
4,"NC(=O)c1nn(-c2ccc(O)cc2)c2c1CCc1ccc(NC(=O)c3cccnc3Cl)cc1-2 [Example 263, 8-{[(2-chloropyridin-3-yl)carbonyl]amino}-1-(4-hydroxyphenyl)-4,5-dihydro-1H-benzo[g]indazole-3-carboxamide]",≤ 1000 nM

# Same assay, conditions: Table 9; read-out: IKK2 Resin IC50
row,Structure (SMILES),IC50
1,"NC(=O)c1nn(-c2ccc(OCCN3CCOCC3)cc2)c2c1CCc1ccc(NC(=O)c3ccccc3Cl)cc1-2 [Example 264, 8-[(2-chlorobenzoyl)amino]-1-[4-(2-morpholin-4-ylethoxy)phenyl]-4,5-dihydro-1H-benzo[g]indazole-3-carboxamide]",≤ 1000 nM
2,"CC1(C)OCC(COc2cccc(-n3nc(C(N)=O)c4c3-c3cc(NC(=O)c5ccncc5Cl)ccc3CC4)c2)O1 (stereo not drawn) [Example 275, 8-[(3-chloroisonicotinoyl)amino]-1-{3-[(2,2-dimethyl-1,3-dioxolan-4-yl)methoxy]phenyl}-4,5-dihydro-1H-benzo[g]indazole-3-carboxamide]",1000 to 10000 nM

# Same assay, conditions: Table 10; read-out: IKK2 Resin IC50
row,Structure (SMILES),IC50
1,"NC(=O)c1nn(-c2cccc(O)c2)c2c1CCc1ccc(NC(=O)c3cc4c(cc3Cl)OCO4)cc1-2 [Example 277, 8-{[(6-chloro-1,3-benzodioxol-5-yl)carbonyl]amino}-1-(3-hydroxyphenyl)-4,5-dihydro-1H-benzo[g]indazole-3-carboxamide]",≤ 1000 nM
2,"NC(=O)c1nn(-c2ccc(O)cc2)c2c1CCc1ccc(NC(=O)c3cc(N)ccc3Cl)cc1-2 [Example 280, 8-[(5-amino-2-chlorobenzoyl)amino]-1-(4-hydroxyphenyl)-4,5-dihydro-1H-benzo[g]indazole-3-carboxamide]",≤ 1000 nM
3,"NC(=O)c1nn(-c2cccc(O)c2)c2c1CCc1ccc(NC(=O)c3ccncc3Cl)cc1-2 [Example 281, 8-[(3-chloroisonicotnoyl)amino]-1-(3-hydroxyphenyl)-4,5-dihydro-1H-benzo[g]indazole-3-carboxamide]",≤ 1000 nM
4,"COc1ccc(C(=O)Nc2ccc3c(c2)-c2c(c(C(N)=O)nn2-c2cccc(O)c2)CC3)c(Cl)c1 [Example 283, 8-[(2-chloro-4-methoxybenzoyl)ammo]-1-(3-hydroxyphenyl)-4,5-dihydro-1H-benzo[g]indazole-3-carboxamide]",≤ 1000 nM
5,"NC(=O)c1nn(-c2cccc(O)c2)c2c1CCc1ccc(NC(=O)c3cccnc3Cl)cc1-2 [Example 284, 8-{[(2-chloropyridin-3-yl)carbonyl]amino}-1-(3-hydroxyphenyl)-4,5-dihydro-1H-benzo[g]indazole-3-carboxamide]",≤ 1000 nM
6,"COc1ccc(C(=O)Nc2ccc3c(c2)-c2c(c(C(N)=O)nn2-c2cccc(O)c2)CC3)c(Cl)c1OC [Example 286, 8-[(2-chloro-3,4-dimethoxybenzoyl)amino]-1-(3-hydroxyphenyl)-4,5-dihydro-1H-benzo[g]indazole-3-carboxamide]",≤ 1000 nM
7,"Cc1ccnc(Cl)c1C(=O)Nc1ccc2c(c1)-c1c(c(C(N)=O)nn1-c1cccc(O)c1)CC2 [Example 287, 8-{[(2-chloro-4-methylpyridin-3-yl)carbonyl]amino}-1-(3-hydroxyphenyl)-4,5-dihydro-1H-benzo[g]indazole-3-carboxamide]",≤ 1000 nM

# Same assay, conditions: Table 11; read-out: IKK2 Resin IC50
row,Structure (SMILES),IC50
1,"CC(C)(O)/C=C/c1ccc(-n2nc(C(N)=O)c3c2-c2cc(NC(=O)c4ccccc4Cl)ccc2CC3)cc1 [Example 289, 8-[(2-chlorobenzoyl)amino]-1-{4-[(1E)-3-hydroxy-3-methylbut-1-enyl]phenyl}-4,5-dihydro-1H-benzo[g]indazole-3-carboxamide]",≤ 1000 nM
2,"NC(=O)c1nn(-c2ccc(/C=C/C(=O)O)cc2)c2c1CCc1ccc(NC(=O)c3ccccc3Cl)cc1-2 [Example 291, (2E)-3-(4-{3-(aminocarbonyl)-8-[(2-chlorobenzoyl)amino]-4,5-dihydro-1H-benzo[g]indazol-1-yl}phenyl)prop-2-enoic acid]",≤ 1000 nM
3,"NC(=O)/C=C/c1ccc(-n2nc(C(N)=O)c3c2-c2cc(NC(=O)c4ccccc4Cl)ccc2CC3)cc1 [Example 292, 1-{4-[(1E)-3-amino-3-oxoprop-1-enyl]phenyl}-8-[(2-chlorobenzoyl)amino]-4,5-dihydro-1H-benzo[g]indazole-3-carboxamide]",≤ 1000 nM
4,"NC(=O)c1nn(-c2ccc(/C=C/n3ccnc3)cc2)c2c1CCc1ccc(NC(=O)c3ccccc3Cl)cc1-2 [Example 293, 8-[(2-chlorobenzoyl)amino]-1-{4-[(E)-2-(1H-imidazol-1-yl)ethenyl]phenyl}-4,5-dihydro-1H-benzo[g]indazole-3-carboxamide]",≤ 1000 nM
5,"CC(=O)CCc1ccc(-n2nc(C(N)=O)c3c2-c2cc(NC(=O)c4ccccc4Cl)ccc2CC3)cc1 [Example 296, 8-[(2-chlorobenzoyl)amino]-1-[4-(3-oxobutyl)phenyl]-4,5-dihydro-1H-benzo[g]indazole-3-carboxamide]",≤ 1000 nM
6,"CS(=O)(=O)/C=C/c1ccc(-n2nc(C(N)=O)c3c2-c2cc(NC(=O)c4ccccc4Cl)ccc2CC3)cc1 [Example 297, 8-[(2-chlorobenzoyl)amino]-1-{4-[(E)-2-(methylsulfonyl)ethenyl]phenyl}-4,5-dihydro-1H-benzo[g]indazole-3-carboxamide]",≤ 1000 nM

# Same assay, conditions: read-out: IKK-2 resin IC50
row,Structure (SMILES),IC50
1,"NC(=O)c1nn(-c2ccc(N3CCOCC3)cc2)c2c1CCc1ccc(NC(=O)c3cccnc3Cl)cc1-2 [Example 288, 8-{[(2-chloropyridin-3-yl)carbonyl]amino}-1-(4-morpholin-4-ylphenyl)-4,5-dihydro-1H-benzo[g]indazole-3-carboxamide]",1000 to 10000 nM
